Biological target: T1, G protein-activated inward rectifier potassium channel 1/4 (Homo sapiens, UniProt P48544+P48549)
T1 sequence (P48549 whole entry): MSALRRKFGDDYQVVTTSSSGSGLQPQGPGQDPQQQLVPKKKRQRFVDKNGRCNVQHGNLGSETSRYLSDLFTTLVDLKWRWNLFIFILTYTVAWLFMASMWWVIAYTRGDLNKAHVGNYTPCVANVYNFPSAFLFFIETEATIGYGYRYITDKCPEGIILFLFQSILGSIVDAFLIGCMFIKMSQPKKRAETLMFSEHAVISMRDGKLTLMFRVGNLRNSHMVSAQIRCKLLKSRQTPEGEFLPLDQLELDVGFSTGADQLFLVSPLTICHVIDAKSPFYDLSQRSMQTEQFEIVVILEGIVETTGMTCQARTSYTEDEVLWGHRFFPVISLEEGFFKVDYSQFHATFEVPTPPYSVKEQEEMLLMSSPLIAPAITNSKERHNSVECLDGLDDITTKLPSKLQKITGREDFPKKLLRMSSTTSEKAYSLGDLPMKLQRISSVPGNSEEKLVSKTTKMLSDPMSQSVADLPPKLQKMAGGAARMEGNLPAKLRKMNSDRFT
T1 sequence (P48544 whole entry): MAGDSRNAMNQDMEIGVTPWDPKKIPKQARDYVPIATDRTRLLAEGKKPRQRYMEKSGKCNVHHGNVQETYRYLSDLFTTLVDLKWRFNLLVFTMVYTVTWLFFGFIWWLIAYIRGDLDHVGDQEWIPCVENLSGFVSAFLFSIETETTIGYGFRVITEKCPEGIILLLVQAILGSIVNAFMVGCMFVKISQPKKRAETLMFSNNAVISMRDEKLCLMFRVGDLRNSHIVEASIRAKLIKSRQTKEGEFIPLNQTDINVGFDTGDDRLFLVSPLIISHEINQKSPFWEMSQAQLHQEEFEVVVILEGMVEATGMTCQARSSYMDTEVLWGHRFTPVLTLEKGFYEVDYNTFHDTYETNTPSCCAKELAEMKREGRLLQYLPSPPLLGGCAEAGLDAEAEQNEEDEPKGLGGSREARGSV
Experiment: GIRK1/4 Activity Assay
Protocol: The GIRK1/4 activity of a compound according to the present invention was assessed by the following in vitro method.Buffers:a. External buffer: 10 mM NaCl, 50 mM Na Gluconate, 80 mM K Gluconate, 1.8 mM CaCl2, 1 mM MgCl2, 10 mM HEPES, 10 mM Glucose, pH 7.4; osmolarity 300-310 […].b. Internal buffer: 30 mM KCl, 100 mM K Gluconate, 1 mM MgCl2, 10 mM HEPES, 1 mM EGTA, 10 mM NaCl, pH 7.2; osmolarity […].Compounds:c. Prepare seven-fold compound dilution series (10 mM to 20 uM) in 100% DMSO, in 384-well polypropylene plates.d. Propafenone (Sigma Aldrich, catalog number P4670) was used as a positive control and DMSO for neutral controle. Resuspend 1 μl of compounds in DMSO into 66.7 μl external buffer in 384-well polypropylene plate and load into Plate 1 section of Molecular Devices Quattro Quattro Setup:f. Load 384-well Population Patch Plate (Molecular Devices #9000-0902) into Quattrog. Fill Quattro F-soak trough with 20% DMSO and 50% EtOHh. Fill Quattro buffer trough with external bufferi. Attach internal buffer flask to Quattro internal buffer tubingj. Attach PBS (Phosphate Buffered Saline, minus Ca++ and Mg++, pH7.4) bottle to F-head & E-head wash on QuattroAntibiotic:k. […] Measured magnitude of inward potassium current at time point between 1200-1220 ms from start of Pulse 1 (i.e., during the voltage ramp phase).t. […]

Cc1cc(=O)c2c(OCCC(N)=O)ncc(Cl)c2n1-c1c(Cl)cc(OCCO)cc1Cl [US12084442, Example 18]
IC50: 30 nM

Source: BindingDB's records for patent US12084442 (Novartis, 2024)
